The text below walks through data of US6649654B1, “Methods for identifying and using IKK inhibitors” (The Regents of the University of California, priority 1999, dated 2003).

One test deals with activated monocytes. To be noted: cited from earlier work.
For a further test, the system named is NF-κB. Briefly: NF-κB activation by EMSA in Jurkat cells stimulated with TNFα or TPA. It is filed as cell-based, human. As for the experimental part: (§1) Cells used in the experiments described herein were cultured in either RPMI 1640 (Jurkat cells) or DMEM (HeLa and COS cells), supplemented with 10% FBS and antibiotics. Cells were stimulated with either 25 ng/ml TPA, 20 ng/ml recombinant TNFα, or 10 ng/ml interleukin 1β (Sigma). PGA1, 15dPGJ2, T×B2, LTB4, AA and other PGs (Cayman) dissolved in ethanol were used as well, as known in the art (See e.g., Rossi et al., 94:746-750 [1997]). Controls received equal amounts of ethanol. Transfections were performed using Lipofectamine Plus (GIBCO) for HeLa and COS cells and DEAE-dextran (Sigma) for Jurkat cells. Xpress-tagged NIK, Xpress-tagged MEKK1, HA-tagged IKKα, and HA-tagged IKKβ were also used (See e.g., Zandi et al., Science 281:1360-1363 [1998]; and Delhase et al., Science 284:309-313 [1999]). COX2 and cPLA2 expression vectors were obtained from Dr. L. Feng (See also, Hirose et al., J. Am. Soc. Nephrol., 9:408-416 [1998]). PGD synthase was cloned from HT29 colon carcinoma cell line cDNA by PCR and subcloned into a pCDNA3 vector. Cells were lysed in buffer B (50 mM Tris-HCl, pH 7.5, 400 mM NaCl, 1 mM EDTA, 1 mM EGTA, 1% Triton, 0.5% NP-40, 10% glycerol, and supplemented with 20 mM β-glycerophosphate, 10 mM PNPP, 500 mM Na3VO4, 1 mM PMSF, 20 μg/ml aprotinin, 2.5 μg/ml leupeptin, 8.3 μg/ml bestatin, 1.7 μg/ml pepstatin, and 2 mM DTT). […]

In a further test the test system is IκBα. Nature of the test: IκBα degradation in stimulated Jurkat cells (immunoblot). The following applies: TNFα or TPA. It is filed as cell-based, human. As for the experimental part: as §1, with “vector.” for “vector. Cells were lysed in buffer B (50 mM Tris-HCl, pH 7.5, 400 mM NaCl, 1 mM EDTA, 1 mM EGTA, 1% Triton, 0.5% NP-40, 10% glycerol, and supplemented with 20 mM β-glycerophosphate, 10 mM PNPP, 500 mM Na3VO4, 1 mM PMSF, 20 μg/ml aprotinin, 2.5 μg/ml leupeptin, 8.3 μg/ml bestatin, 1.7 μg/ml pepstatin, and 2 mM DTT).”
In addition, recombinant IKKβ was expressed in Sf9 cells and purified as described (Zandi et al., supra). […] After 1.5 hours at 4° C., the immunoprecipitates were washed and the kinase activity determined. […]
In general terms: A western blot detects proteins with antibodies after separation by electrophoresis.

The next test deals with T1, IKKβ (Homo sapiens, UniProt O14920).
T1 sequence (O14920 1-756): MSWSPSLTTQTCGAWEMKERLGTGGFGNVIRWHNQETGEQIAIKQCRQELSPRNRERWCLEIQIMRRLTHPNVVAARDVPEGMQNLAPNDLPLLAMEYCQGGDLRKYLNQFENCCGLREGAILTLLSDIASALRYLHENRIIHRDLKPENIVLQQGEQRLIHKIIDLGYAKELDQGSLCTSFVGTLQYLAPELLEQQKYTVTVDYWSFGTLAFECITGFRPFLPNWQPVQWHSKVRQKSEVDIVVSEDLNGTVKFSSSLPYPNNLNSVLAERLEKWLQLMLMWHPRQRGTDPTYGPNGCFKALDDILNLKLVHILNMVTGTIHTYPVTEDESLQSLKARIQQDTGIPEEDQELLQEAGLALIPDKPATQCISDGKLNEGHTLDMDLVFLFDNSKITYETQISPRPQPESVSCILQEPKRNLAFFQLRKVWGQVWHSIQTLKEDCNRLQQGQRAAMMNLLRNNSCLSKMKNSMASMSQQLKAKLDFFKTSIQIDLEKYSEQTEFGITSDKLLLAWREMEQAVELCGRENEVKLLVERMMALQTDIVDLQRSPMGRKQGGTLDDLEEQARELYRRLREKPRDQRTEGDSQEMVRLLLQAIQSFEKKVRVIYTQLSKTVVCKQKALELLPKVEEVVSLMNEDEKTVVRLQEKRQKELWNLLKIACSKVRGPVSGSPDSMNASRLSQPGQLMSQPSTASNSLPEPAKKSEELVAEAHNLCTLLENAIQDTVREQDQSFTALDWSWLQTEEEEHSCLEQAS
Nature of the test: HA-tagged IKKβ overexpressed in COS cells: kinase activity and expression. It is filed as cell-based. On the procedure: as §1, with “vector.” for “vector. Cells were lysed in buffer B (50 mM Tris-HCl, pH 7.5, 400 mM NaCl, 1 mM EDTA, 1 mM EGTA, 1% Triton, 0.5% NP-40, 10% glycerol, and supplemented with 20 mM β-glycerophosphate, 10 mM PNPP, 500 mM Na3VO4, 1 mM PMSF, 20 μg/ml aprotinin, 2.5 μg/ml leupeptin, 8.3 μg/ml bestatin, 1.7 μg/ml pepstatin, and 2 mM DTT).”
(§2) Cell lysates were incubated with anti-IKKα (Pharmingen), anti-HA (12CA5; Pharmingen), anti-JNK1 (333.8; Pharmingen), or anti-p38 (New England Biolabs) for 2 hours. […] Endogenous IKK, HA-tagged IKKα, endogenous JNK1, and p38 activities were determined with GST-1κBα(1-54), GST-c-Jun(1-79), and GST-ATF2 as substrates.

Another test addresses IKK (Homo sapiens, UniProt O14920+O15111). Briefly: MEKK1-induced IKK activity in Jurkat cells. It is filed as cell-based. To be noted: data not shown. On the procedure: as §1, with “vector.” for “vector. Cells were lysed in buffer B (50 mM Tris-HCl, pH 7.5, 400 mM NaCl, 1 mM EDTA, 1 mM EGTA, 1% Triton, 0.5% NP-40, 10% glycerol, and supplemented with 20 mM β-glycerophosphate, 10 mM PNPP, 500 mM Na3VO4, 1 mM PMSF, 20 μg/ml aprotinin, 2.5 μg/ml leupeptin, 8.3 μg/ml bestatin, 1.7 μg/ml pepstatin, and 2 mM DTT).”
as §2

The structures appear in SMILES notation. “Also recorded” adds a separate entry of the source.

IKK, sequence (O15111 whole entry, one chain of several): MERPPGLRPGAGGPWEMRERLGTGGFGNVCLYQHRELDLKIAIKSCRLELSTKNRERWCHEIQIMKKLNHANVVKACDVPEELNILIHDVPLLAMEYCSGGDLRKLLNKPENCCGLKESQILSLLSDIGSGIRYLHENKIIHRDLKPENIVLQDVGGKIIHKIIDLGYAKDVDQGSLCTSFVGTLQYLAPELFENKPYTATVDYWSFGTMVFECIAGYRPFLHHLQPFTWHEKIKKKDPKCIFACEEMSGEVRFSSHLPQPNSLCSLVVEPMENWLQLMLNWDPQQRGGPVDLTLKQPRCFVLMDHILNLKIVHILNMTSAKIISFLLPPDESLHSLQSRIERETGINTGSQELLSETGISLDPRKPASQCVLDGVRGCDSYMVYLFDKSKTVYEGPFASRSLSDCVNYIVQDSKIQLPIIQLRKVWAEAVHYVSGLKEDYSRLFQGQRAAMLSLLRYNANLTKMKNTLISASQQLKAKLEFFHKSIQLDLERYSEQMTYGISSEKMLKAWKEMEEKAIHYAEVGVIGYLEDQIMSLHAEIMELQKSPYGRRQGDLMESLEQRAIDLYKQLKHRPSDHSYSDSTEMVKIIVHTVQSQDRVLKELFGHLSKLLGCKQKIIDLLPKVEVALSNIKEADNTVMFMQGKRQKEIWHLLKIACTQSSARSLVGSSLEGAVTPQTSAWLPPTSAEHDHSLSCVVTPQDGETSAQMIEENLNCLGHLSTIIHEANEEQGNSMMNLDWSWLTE
IKK, sequence (Q9Y6K9 whole entry partner, one chain of several): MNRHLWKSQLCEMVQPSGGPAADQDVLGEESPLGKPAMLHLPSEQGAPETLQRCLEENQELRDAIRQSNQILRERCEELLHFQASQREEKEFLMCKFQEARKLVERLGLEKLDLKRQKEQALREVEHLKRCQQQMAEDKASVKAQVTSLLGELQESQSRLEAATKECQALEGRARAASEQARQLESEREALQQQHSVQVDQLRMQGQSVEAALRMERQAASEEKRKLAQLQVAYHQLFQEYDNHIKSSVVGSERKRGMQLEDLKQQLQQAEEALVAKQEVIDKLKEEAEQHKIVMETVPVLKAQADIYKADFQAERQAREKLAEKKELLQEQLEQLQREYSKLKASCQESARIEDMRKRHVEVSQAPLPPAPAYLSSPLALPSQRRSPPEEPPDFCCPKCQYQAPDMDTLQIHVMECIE

For `CCCCC/C=C/C=C1/C(=O)C=C[C@@H]1C/C=C\CCCC(=O)O` [15dPGJ2, 15-deoxy-Δ^12-14-PGJ2], in the test with activated monocytes, the “production of pro-inflammatory cytokines” value is “inhibits”.
As to `CCCCC[C@H](O)/C=C/[C@H]1C=CC(=O)C1CCCCCCC(=O)O` (stereo partly shown) [PGA1, prostaglandin A1], the IC50 in the test with NF-κB (Homo sapiens, read-out: half-maximal inhibitory (IC50) concentration towards NF-κB) is 12 µM. The “effect on NF-κB activation” value in the test with NF-κB (TNFα or TPA) was “prevented”. Also, the “effect on IκBα degradation” value in the test on IκBα was “prevent IκBα degradation; also recorded: prevented”. Further, on IKKβ (COS cells overexpressing HA-tagged IKKβ), the “effect on IKKβ expression (immunoblotting)” value was “did not affect”. Besides, the “effect on kinase activity of overexpressed HA-tagged IKKβ” value at IKKβ (COS cells, PGA1 15 or 30 μM, FIG. 2C) is “strongly inhibited; also recorded: inhibits”. Moreover, the “effect on MEKK1-induced IKK activity” value at IKK is listed as “inhibited”.
